Where two headings read alike, the source gives them in different places.
Assays:
[1] = Pharmacokinetics test in male ICR mice; format: in vivo; settings: CD-1 (ICR), mouse, plasma, 5 mg/kg; for half-life: male
Procedure: After intravenous or intraperitoneal administration (5 mg/kg, 3.3 mL/kg) of the compound (SB1617, 5% DMSO/[…]) according to the present invention to CD-1 (ICR) male mice (7 weeks old, KOATECH, Korea), blood was collected at designated time points from the orbital venous plexus. The concentration of the compound (SB1617) according to the present invention was examined from the plasma samples using an LC-MS/MS analyzer (Agilent 1200, 4000 Qtrap). Pharmacokinetic parameters were obtained from plasma concentration-time plots using WinNonlin software (Pharsight, USA).
6-1. In order to evaluate the suitability of the compound (SB1617) according to this invention in vivo, pharmacokinetic properties and blood-brain barrier penetration properties were identified using male ICR mice according to the methods described in Examples 1-15 and 1-16.

[2] = system: TBI mouse model; test: Controlled cortical impact TBI mouse model; format: in vivo
Procedure: CD-1 (ICR) male mice (2-3 months old, 25-35 g body weight; DBL, Korea) were used in the TBI study. […] All mice were fed water and food ad libitum. In order to avoid and minimize transport-related stress, experiments were initiated after a period of one week following transport to allow the animals to acclimatize to environmental conditions.
An experimental controlled cortical impact (CCI) model for TBI was performed as follows. Using an isoflurane vaporizer (VetEquip), the mouse was deeply anesthetized with isoflurane inhaled at 3% in a mixture of 70:30 nitrous oxide and oxygen, and placed in a stereotaxic apparatus. […] An approximately 4 mm incision was made in the right hemisphere using a hand-held drill (midline 2 mm, bregma 1 mm). A controlled cortical impact device (Leica Impact One, Leica Biosystems) was used to accelerate an impact device equipped with a 2 mm flat-tip at a speed of 5 m/sec to a depth of 1.4 mm. […] Traumatic brain injury animal models were randomly generated according to an online randomization tool (randomizer.org). Sham-operated groups performed only craniotomy.
Control mice were intraperitoneally administered with the same volume of vehicle.
Mice were deeply anesthetized by intraperitoneal administration of a mixture of urethane (1.5 g/kg) in saline (0.9% NaCl) at 0.01 mL/g per body weight. The effect of anesthesia was assessed using a toe pinch. Subsequently, saline was perfused into the heart of the mouse, and PBS was mixed with 4% paraformaldehyde and then perfused. Brains were fixed in 4% paraformaldehyde for 1 h and immersed in 30% sucrose for cryoprotection. Then, whole brains were frozen and […] sections were formed on a cryostat microtome (CM1850, Leica) with a thickness of 30 μm.
After washing in PBS, sections were incubated overnight with a mouse monoclonal anti-NeuN antibody (1:500 dilution, Millipore) in PBS containing 0.3% Triton X-100 at 4° C. to assess neuronal loss after TBI. After washing with PBS, sections were incubated in biotinylated anti-mouse IgG (1:250 dilution, Vector) at room temperature for 2 hours […] to detect NeuN antibody and biotinylated anti-rat IgG (1:250 dilution, Vector) to examine the degree of leakage of endogenous immunoglobulin G. Then, the sections were immersed in an avidin-biotin-peroxidase complex (Vector) for 2 hours at room temperature. Between incubations, sections were washed with PBS. […] Immunoreactivity was observed under an Olympus IX70 inverted microscope.
Immunofluorescence labeling was performed according to a conventionally known general immunostaining procedure. […] After washing with PBS, the sections were incubated with each specific type of polyclonal or monoclonal primary antibody with PBS containing 0.3% Triton X-100 overnight at 4° C.
The primary antibodies used in this test are the same as follows: • mouse monoclonal anti-4-hydroxynonenal (4-HNE; diluted 1:500; Alpha Diagnostic International), • mouse monoclonal anti-Tau (Tau5; diluted 1:500; Abcam), • mouse monoclonal anti-phospho Tau (Ser202, Thr205; AT8; diluted 1:200; Invitrogen), • mouse monoclonal anti-PDI (diluted 1:100; Abcam), • rabbit polyclonal anti-ERp57 (diluted 1:100; Abcam), and • goat polyclonal anti-Iba-1 antibody (diluted 1:500; Abcam).
To count NeuN-positive cells, every sixth section was collected posterior to bregma from 1.2 to 2.1 mm at 180 μm intervals. Five coronal sections from each mouse were analyzed using a microscope with a 20×objective. These sections were then coded and provided to a blinded experimenter to count total NeuN-positive cells in hippocampal CA1 and cortex from hippocampal hemispheres. Data were expressed as the average number of NeuN-positive cells per area. To quantify the PDI-, ERp57-, Tau5-, AT8-, and 4HNE- immunofluorescence intensities, five coronal sections were evaluated by a blinded experimenter using ImageJ (National Institute of Health).

[3] = after TBI induction, versus vehicle
[4] = ipsilateral perilesional cortex, 12 and 24 hours after TBI induction

CN(Cc1ccc(Cl)cc1)c1ncnc2c1[C@@H]1OC[C@H](CN2)N1S(=O)(=O)c1ccc([N+](=O)[O-])cc1 [Compound 117]
AUC(0-inf) ([1]; ip, I.P.): 5650 ± 3320 ng·h/mL
AUC(0-t) ([1]; ip, I.P.): 6070 ± 2810 ng·h/mL
Cmax ([1]; ip, I.P.): 857 ± 339 ng/mL
Tmax ([1]; ip, I.P.): 1.67 ± 2.02 h
AUC(0-inf) ([1]; iv, I.V.): 4490 ± 150 ng·h/mL
AUC(0-t) ([1]; iv, I.V.): 4190 ± 112 ng·h/mL
clearance ([1]; iv, I.V.): 18.7 mL/min/kg
Vd ([1]; iv, I.V., read-out: Vss): 6.27 ± 0.928 L/kg
half-life ([1]; ip, I.P., read-out: T1/2 (converted)): 6.57 ± 0.0563 h
half-life ([1]; ip, intraperitoneal injection, read-out: half-life (converted)): ~6.6 h
half-life ([1]; iv, I.V., read-out: T1/2 (converted)): 5.51 ± 1.86 h
neurologic severity score (NSS) ([2]; 1, 4, 24, 48, 72 hours and 7 days after TBI): maintained nerve protection activity
pole climbing test, time to descend the pole [2, 3]: significantly reduced
pole climbing test, time to turn the head downward [2, 3]: significantly reduced
level of microglial activation ([2]; ipsilateral hemisphere, after TBI): the activity of microglial cells was improved
total tau and p-tau levels (Tau5, AT8 immunofluorescence) ([2]; ipsilateral hippocampal CA1 and cortex, 24 hours after TBI, 5 mg/kg, 2 times a day): these symptoms were improved
Iba-1 levels (neuroinflammation) ([2]; ipsilateral hippocampal CA1 and cortex, 72 hours after TBI): could be improved
ER stress and oxidative stress (PDI, ERp57 immunofluorescence) ([2]; ipsilateral hippocampal CA1 and cortex, 5 mg/kg, 2 times a day): these symptoms were confirmed
conversion rate from LC3-1 to LC3-II (Western blotting) [2, 4]: the conversion rate from LC3-1 to LC3-II was improved
p62 protein level (Western blotting) [2, 4]: an increase in p62 protein level
